Results on 32 compounds are retold here after patent US12649751B2 (Arcus Biosciences, Inc., priority 2022, dated 2026).

Each structure is given as a SMILES string. Like-named read-outs stand apart in the source and are kept apart here.

In assay [1] the test system is p-SLP-76 (Ser376) in Jurkat cells. In words: pSLP76 Cellular Assay (AlphaLISA SureFire Ultra p-SLP-76 (Ser376), anti-CD3 activated Jurkat cells). It counts as cell-based. The note with it: read-out: Cellular Potency. Summed up: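 Read-out is AlphaLISA p-SLP-76 (Ser376) signal at 570 nm in Jurkat lysates, with IC50 fitted by 4-parameter logistic. Cells were starved overnight, exposed 1 h at 37 °C to 22 twofold compound dilutions in HBSS, then activated 45 min with anti-CD3 (0.025 mg/ml stock added).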
A general note: In Alpha technology, singlet oxygen from a donor bead excites a nearby acceptor bead.

For the next assay, the target named is HPK1 (Homo sapiens, UniProt Q92918). In words: HPK1 Biochemical Assay (ADP-Glo luminescence; low ATP 10 μM or high ATP 200 μM).
HPK1, sequence (Q92918 whole entry, species assumed): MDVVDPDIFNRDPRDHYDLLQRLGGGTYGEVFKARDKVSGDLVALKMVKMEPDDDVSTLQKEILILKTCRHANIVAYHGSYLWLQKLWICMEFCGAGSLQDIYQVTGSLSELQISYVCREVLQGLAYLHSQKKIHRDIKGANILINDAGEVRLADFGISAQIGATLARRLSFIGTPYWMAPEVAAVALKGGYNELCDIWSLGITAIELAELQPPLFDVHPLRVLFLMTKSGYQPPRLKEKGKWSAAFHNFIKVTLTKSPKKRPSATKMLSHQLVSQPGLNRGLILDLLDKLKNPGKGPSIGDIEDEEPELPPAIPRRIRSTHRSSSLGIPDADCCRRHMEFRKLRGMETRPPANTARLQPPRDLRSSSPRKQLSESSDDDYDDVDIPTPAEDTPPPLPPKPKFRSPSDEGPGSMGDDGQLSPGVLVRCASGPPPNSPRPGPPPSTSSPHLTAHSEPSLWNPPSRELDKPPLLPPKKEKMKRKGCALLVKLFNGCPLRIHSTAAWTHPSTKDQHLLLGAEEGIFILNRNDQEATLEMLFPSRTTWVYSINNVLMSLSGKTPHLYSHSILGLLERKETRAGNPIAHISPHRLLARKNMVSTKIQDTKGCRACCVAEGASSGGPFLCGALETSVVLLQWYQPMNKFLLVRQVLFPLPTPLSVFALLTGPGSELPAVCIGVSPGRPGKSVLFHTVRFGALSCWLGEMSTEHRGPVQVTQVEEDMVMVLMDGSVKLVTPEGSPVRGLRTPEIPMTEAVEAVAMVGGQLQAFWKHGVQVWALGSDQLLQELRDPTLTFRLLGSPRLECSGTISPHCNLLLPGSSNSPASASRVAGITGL
Where [2] appears, read: Homo sapiens, pSLP76 (Ser376) AlphaLISA, anti-CD3 activated Jurkat cells.
[3] abbreviates: HPK1 ADP-Glo assay, high ATP (200 μM ATP, 5 nM HPK1), read-out: Biochemical Potency (high ATP).
Where [4] appears, read: Homo sapiens, Jurkat cells, anti-CD3 stimulation, pSLP76.
Setting [5] is: 2 nM HPK1, 10 μM ATP, read-out: Biochemical Potency (low ATP).
Where [6] appears, read: HPK1 ADP-Glo assay, low ATP (10 μM ATP, 2 nM HPK1), read-out: Biochemical Potency (low ATP).

On to `Cc1cc(Nc2cc3nc(-c4ccnc(N5CCS(=O)(=O)CC5)c4)sc3cn2)nc(N2C[C@@H]3C[C@H]2CN3C)n1` [Example 478], for which the figures for the IC50 (in assay [1] (setting [2]); on HPK1 (setting [3])) were 0.1 to 1 µM and less than 0.1 µM, respectively.
For the compound `Cc1cc(Nc2cc3nc(-c4cnn(C)c4)sc3cn2)nc(N2C[C@@H]3C[C@H]2CN3C[C@@H](C)O)n1` [Example 499], the IC50 (in assay [1] (setting [2]); on HPK1 (setting [3])) was less than 0.1 µM throughout.
`Cc1cc(Nc2cc3nc(-c4cc(C#N)cc(C(=O)N(C)C)c4)sc3cn2)nc(N2C[C@@H]3C[C@H]2CN3CCO)n1` [Example 554]: the IC50 is 0.1 to 1 µM in assay [1] (setting [2]) and less than 0.1 µM at HPK1 (setting [3]).
On to `CCc1cc(C(=O)N(C)C)cc(-c2nc3cc(Nc4cc(C)nc(N5C[C@@H]6C[C@H]5CN6CC)n4)ncc3s2)c1` [Example 518], for which the IC50 (in assay [1] (setting [2]); on HPK1 (setting [3])) was less than 0.1 µM throughout.
For the compound `CCn1cc(-c2nc3cc(Nc4cc(C)nc(N5C[C@@H]6C[C@H]5CN6CCO)n4)ncc3s2)cn1` [Example 358], the IC50 (in assay [1] (setting [2]); on HPK1 (setting [3])) was less than 0.1 µM each time.
As for `CCN(CC)C(=O)c1cccc(-c2nc3cc(Nc4cc(C)nc(N5C[C@@H]6C[C@H]5CN6CC)n4)ncc3s2)c1` [Example 342], the IC50 in assay [1] (setting [2]) is 0.1 to 1 µM; on HPK1 (setting [3]) it was less than 0.1 µM.
For the compound `Cc1cccnc1-c1nc2cc(Nc3ccc(C)c(N4C[C@@H]5CCN(C)[C@@H]5C4)n3)ncc2s1` [Example 112, 6-[(3aS,6aS)-1-Methyl-octahydropyrrolo[3,4-b]pyrrol-5-yl]-5-methyl-N-[2-(3-methylpyridin-2-yl)-[1,3]thiazolo[5,4-c]pyridin-6-yl]pyridin-2-amine], the IC50 in assay [1] (setting [4]) is greater than 5 µM; on HPK1 (setting [5]) it was less than 0.1 µM.
As for `CC(=O)N1CCn2ncc(-c3nc4cc(Nc5cc(C)nc(N6C[C@@H]7C[C@H]6CN7C)n5)ncc4s3)c2C1` [Example 569], the IC50 was 0.1 to 1 µM in assay [1] (setting [2]) and less than 0.1 µM on HPK1 (setting [3]).
Turning to `Cc1cccnc1-c1nc2cc(Nc3cnc(C4CCOCC4)c(N4C[C@@H]5C[C@H]4CN5)n3)ncc2s1` [Example 510], the IC50 (in assay [1] (setting [2]); on HPK1 (setting [3]); on HPK1 (setting [6])) was less than 0.1 µM throughout.
Turning to `Cc1cccnc1-c1nc2cc(Nc3ccc(N4CCOCC4)c(CN4CCCC4)n3)ncc2s1` [Example 63, N-[2-(3-Methylpyridin-2-yl)-[1,3]thiazolo[5,4-c]pyridin-6-yl]-5-(morpholin-4-yl)-6-[(pyrrolidin-1-yl)methyl]pyridin-2-amine], the IC50 in assay [1] (setting [4]) was 0.1 to 1 µM; on HPK1 (setting [5]) it was less than 0.1 µM.
Regarding `CN1C[C@@H]2C[C@H]1CN2c1cccc(Nc2cc3nc(-c4cccnc4)sc3cn2)n1` [Example 89, 6-[(1S,4S)-5-Methyl-2,5-diazabicyclo[2.2.1]heptan-2-yl]-N-[2-(pyridin-3-yl)-[1,3]thiazolo[5,4-c]pyridin-6-yl]pyridin-2-amine], the IC50 is 0.1 to 1 µM in assay [1] (setting [4]) and less than 0.1 µM on HPK1 (setting [5]).
Consider `CCN1C[C@@H]2C[C@H]1CN2c1nc(C)cc(Nc2cc3nc(-c4cccc(C(=O)N(C)C5CCN(C(C)=O)CC5)c4)sc3cn2)n1` [Example 568], for which the IC50 is 1 to 5 µM in assay [1] (setting [2]) and 0.1 to 1 µM on HPK1 (setting [3]).
Take `Cc1cccc(F)c1-c1nc2cc(Nc3ccc(N4CCOCC4)c(CN4CCCS4(=O)=O)n3)ncc2s1` [Example 30, 2-[(6-{[2-(2-Fluoro-6-methylphenyl)-[1,3]thiazolo[5,4-c]pyridin-6-yl]amino}-3-(morpholin-4-yl)pyridin-2-yl)methyl]-1λ^6,2-thiazolidine-1,1-dione]: the IC50 in assay [1] (setting [4]) was 0.1 to 1 µM; at HPK1 (setting [5]) it was less than 0.1 µM.
Turning to `COCc1c(-c2nc3cc(Nc4cc(C)nc(N5C[C@@H]6C[C@H]5CN6C)n4)ncc3s2)cnn1C` [Example 351], the IC50 (in assay [1] (setting [2]); at HPK1 (setting [3])) was less than 0.1 µM each time.
For `COCCN1C[C@@H]2C[C@H]1CN2c1nc(C)cc(Nc2cc3nc(-c4cccc(C(=O)N(C)C)c4)sc3cn2)n1` [Example 506], the IC50 in assay [1] (setting [2]) was 0.1 to 1 µM; at HPK1 (setting [3]), less than 0.1 µM.
With `CN1C[C@@H]2C[C@H]1CN2c1nccc(Nc2cc3nc(-c4ccnc(N5CCOCC5)c4)sc3cn2)n1` [Example 460], the IC50 in assay [1] (pSLP76 (Ser376) AlphaLISA, anti-CD3 activated Jurkat cells) was 0.1 to 1 µM; on HPK1 (setting [6]), less than 0.1 µM.
For `Cc1cccnc1-c1nc2cc(Nc3nc(N4C[C@@H]5C[C@H]4CN5C)ccc3F)ncc2s1` [Example 109, 3-Fluoro-6-[(1S,4S)-5-methyl-2,5-diazabicyclo[2.2.1]heptan-2-yl]-N-[2-(3-methylpyridin-2-yl)-[1,3]thiazolo[5,4-c]pyridin-6-yl]pyridin-2-amine], the IC50 is 1 to 5 µM in assay [1] (setting [4]) and less than 0.1 µM at HPK1 (setting [5]).
As to `Cc1ccncc1-c1nc2cc(Nc3cccc(N4C[C@@H]5C[C@H]4CN5C)n3)ncc2s1` [Example 139, 6-[(1S,4S)-5-Methyl-2,5-diazabicyclo[2.2.1]heptan-2-yl]-N-[2-(4-methylpyridin-3-yl)-[1,3]thiazolo[5,4-c]pyridin-6-yl]pyridin-2-amine], the IC50 in assay [1] (setting [4]) is 0.1 to 1 µM; on HPK1 (setting [5]) it was less than 0.1 µM.
For the compound `Cc1cc(Nc2cc3nc(-c4ccnc(N5CCO[C@H](C)C5)c4)sc3cn2)nc(N2C[C@@H]3C[C@H]2CN3CCO)n1` [Example 451], the IC50 was 0.1 to 1 µM in assay [1] (setting [2]) and less than 0.1 µM at HPK1 (setting [3]).
Take `Cc1cc(Nc2cc3nc(-c4cccc(S(=O)(=O)N5CCCCC5)c4)sc3cn2)nc(N2C[C@@H]3C[C@H]2CN3C)n1` [Example 367]: the IC50 was 1 to 5 µM in assay [1] (setting [2]) and less than 0.1 µM at HPK1 (setting [3]).
For the compound `c1cc(-c2nc3cc(Nc4ccc(C5CCOCC5)c(CN5CCCC5)n4)ncc3s2)ccn1` [Example 216, 5-(Oxan-4-yl)-N-[2-(pyridin-4-yl)-[1,3]thiazolo[5,4-c]pyridin-6-yl]-6-[(pyrrolidin-1-yl)methyl]pyridin-2-amine], the IC50 (in assay [1] (setting [4]); on HPK1 (setting [5])) was less than 0.1 µM in each case.
With `Cc1ccnn1-c1nc2cc(Nc3ccc(N4CCOCC4)c(C(C)(C)N)n3)ncc2s1` [Example 270, 6-(2-Aminopropan-2-yl)-N-[2-(5-methyl-1H-pyrazol-1-yl)-[1,3]thiazolo[5,4-c]pyridin-6-yl]-5-(morpholin-4-yl)pyridin-2-amine], the IC50 was 0.1 to 1 µM in assay [1] (setting [4]) and less than 0.1 µM on HPK1 (setting [5]).
On to `Cc1cc(Nc2cc3nc(-c4cccc(C(=O)N(C)C)c4)sc3cn2)nc(N2C[C@@H]3C[C@H]2CN3C2CCN(S(C)(=O)=O)CC2)n1` [Example 331], for which the IC50 in assay [1] (setting [2]) was 1 to 5 µM; at HPK1 (setting [3]) it was 0.1 to 1 µM.
Consider `Cc1cccnc1-c1nc2cc(Nc3cccc(N4C[C@@H](C)N(C)[C@@H](C)C4)n3)ncc2s1` [Example 100, N-[2-(3-Methylpyridin-2-yl)-[1,3]thiazolo[5,4-c]pyridin-6-yl]-6-[(3R,5S)-3,4,5-trimethylpiperazin-1-yl]pyridin-2-amine], for which the figures for the IC50 (in assay [1] (setting [4]); at HPK1 (setting [5])) were greater than 5 µM and less than 0.1 µM, respectively.
For `Cc1cc(NCc2nccn2C)nc(Nc2cc3nc(-c4ccnc(C)c4)sc3cn2)c1` [Example 76, 4-Methyl-N2-[(1-methyl-1H-imidazol-2-yl)methyl]-N6-[2-(2-methylpyridin-4-yl)-[1,3]thiazolo[5,4-c]pyridin-6-yl]pyridine-2,6-diamine], in that order: 1 to 5 µM and less than 0.1 µM.
Consider `Cc1cc(-c2nc3cc(Nc4cccc(N5CCNCC5)n4)ncc3s2)ccn1` [Example 85, N-[2-(2-Methylpyridin-4-yl)-[1,3]thiazolo[5,4-c]pyridin-6-yl]-6-(piperazin-1-yl)pyridin-2-amine], for which the figures for the IC50 (in assay [1] (setting [4]); at HPK1 (setting [5])) were 1 to 5 µM and less than 0.1 µM, respectively.
Regarding `CCN1C[C@@H]2C[C@H]1CN2c1nc(C)cc(Nc2cc3nc(-c4cncc(N5C(=O)OC[C@H]5C)c4)sc3cn2)n1` [Example 295, (4R)-3-{5-[6-({2-[(1S,4S)-5-ethyl-2,5-diazabicyclo[2.2.1]heptan-2-yl]-6-methylpyrimidin-4-yl}amino)-[1,3]thiazolo[5,4-c]pyridin-2-yl]pyridin-3-yl}-4-methyl-1,3-oxazolidin-2-one], the values for the IC50 (in assay [1] (setting [2]); on HPK1 (setting [3])) were 0.1 to 1 µM and less than 0.1 µM, respectively.
In the case of `Cc1cc(Nc2cc3nc(-c4cccc(S(=O)(=O)C5CC5)c4)sc3cn2)nc(N2C[C@@H]3C[C@H]2CN3CCO)n1` [Example 500], the IC50 (in assay [1] (setting [2]); on HPK1 (setting [3])) was less than 0.1 µM in each case.
`Cc1cc(Nc2cc3nc(-c4ccnc(C5CCOCC5)c4)sc3cn2)nc(N2C[C@@H]3C[C@H]2CN3C)n1` [Example 480]: the IC50 in assay [1] (setting [2]) is 0.1 to 1 µM; at HPK1 (setting [3]), less than 0.1 µM.
On to `CCN1C[C@@H]2C[C@H]1CN2c1nc(C)cc(Nc2cc3nc(-c4cccc(C(=O)N[C@H](C)C5CC5)c4)sc3cn2)n1` [Example 524], for which the IC50 (in assay [1] (setting [2]); on HPK1 (setting [3])) was less than 0.1 µM in each case.
For the compound `Cc1cc(-c2nc3cc(Nc4ccc(C5CCOC5)c(CN5CCCC5)n4)ncc3s2)ccn1` (centres unmarked) [Example 253, N-[2-(2-Methylpyridin-4-yl)-[1,3]thiazolo[5,4-c]pyridin-6-yl]-5-(oxolan-3-yl)-6-[(pyrrolidin-1-yl)methyl]pyridin-2-amine], the values for the IC50 (in assay [1] (setting [4]); at HPK1 (setting [5])) were 0.1 to 1 µM and less than 0.1 µM, respectively.
As to `Cc1cc(Nc2cc3nc(-c4cccc(C(=O)N(C)C)c4F)sc3cn2)nc(N2C[C@@H]3C[C@H]2CN3C)n1` [Example 399], the values for the IC50 (in assay [1] (setting [2]); on HPK1 (setting [3])) were 0.1 to 1 µM and less than 0.1 µM, respectively.
